≈ marks a conversion by molar mass, not a printed value. Counter-ions that a name gives are not always drawn. Like-named read-outs stand apart in the source and are kept apart here.
Tests used:
E. faecalis AR-0671 = experiment: Broth microdilution MIC, E. faecalis AR-0671; type: cell-based, Enterococcus faecalis; details: for MIC: Enterococcus faecalis
From the text: (§1) The multidrug-resistant S. aureus strain TCH 1516 [USA 300-HOU-MR] was obtained from the American Type Culture Collection (ATCC, Manassas, VA, USA) (Table 1). E. faecalis AR-0671, multidrug-resistant E. coli AR-0001, K. pneumoniae AR-0003, P. aeruginosa AR-1114, and A. baumannii AR-0273 strains were acquired from the Centers for Disease Control and Prevention (CDC) AR isolate bank (Table 1). Prior to the initiation of this study, all microbial strains were stored in commercial cryopreservation systems at a temperature of −80 °C. The strains were cultivated on Columbia sheep blood agar (Becton Dickinson, Franklin Lakes, NJ, USA) or potato dextrose agar (PDA) for Candida (Becton Dickinson, Franklin Lakes, NJ, USA).
(§2) The antimicrobial activity of 3-((3-hydroxyphenyl)amino)propanoic acid derivatives was assessed by using the broth microdilution method, following the guidelines outlined by the Clinical Laboratory Standards Institute (CLSI), with modifications. In brief, the compounds were dissolved in dimethyl sulfoxide (DMSO) to attain a final concentration of 25–30 mg/mL. Vancomycin hydrochloride (MedChem express, Cat. No. HY-17362), cefazolin (MedChem express, Cat. No. HY-B1892), and meropenem (MedChem express, Cat. No. HY-13678) were used as control antimicrobial drugs and were dissolved in DMSO as described before. Dilution series were prepared in deep 96-well microplates to achieve a two-fold concentration range of 0.25, 0.5, 1, 2, 4, 8, 16, 32, and 64 µg/mL, utilizing cation-adjusted Mueller–Hinton broth (CAMHB) as the growth medium. The microplates containing the dilution series were then inoculated with fresh cultures of each tested organism to reach a final concentration of 5 × 10^4 CFU (colony-forming units) of the test organism in media containing 1% DMSO and 1× drug concentration, with a volume of 200 µL per well. Wells that were inoculated with medium containing 1% DMSO served as positive controls. Subsequently, the microplates were incubated at 35 ± 1 °C for 18 ± 2 h. Following the incubation period, the plates were examined by using a manual microplate viewer (Sensititre Manual Viewbox, ThermoFisher Scientific, Waltham, MA, USA). […] All experiments were conducted in duplicate with three technical replicates for each condition.

A. baumannii AR-0273 = experiment: Broth microdilution MIC, A. baumannii AR-0273; type: cell-based, Acinetobacter baumannii; details: Acinetobacter baumannii, AR0273; OXA-23; CAMHB, 18 ± 2 h; read-out: minimal inhibitory concentration (MIC) A. baumannii AR-0273
From the text: as §1, §2

FaDu cells = experiment: MTT cell viability at fixed 100 µM, FaDu cells; type: cell-based; details: 24 h, described in words (Figure 2)
Method: Test compounds 2–25 were dissolved in hybridoma-grade dimethyl sulfoxide (Millipore, Sigma, Burlington, MA, USA) to prepare stock solutions at concentrations of 10–25 mg/mL. […] For in vitro anticancer activity screening, the compounds were thawed at room temperature, protected from light, and the aliquots were diluted in complete cell culture media to achieve a final concentration of 100 µM and used for the in vitro assays. The cytotoxicity assays were performed in triplicate.
FaDu cells were obtained from the American Type Culture Collection (Rockville, MD, USA). HEK293 cells were kindly provided by Dr. Iliev lab at the Jill Roberts Institute for Inflammatory Bowel Disease, Weill Cornel Medicine of Cornel University (New York, NY, USA). All cells were cultivated in Dulbecco’s Modified Eagle Medium/Nutrient Mixture F-12 (DMEM/F-12) (Gibco, Waltham, MA, USA), 10% fetal bovine serum (FBS) (Gibco, Waltham, MA, USA), 100 U/mL penicillin, and 100 μg/mL streptomycin (P/S) (Gibco, Waltham, MA, USA). Culturing conditions were maintained at 37 °C in a humidified atmosphere containing 5% CO2. The culture medium was refreshed every 2–3 days, and cells were passaged upon reaching 70–80% confluence.
The in vitro inhibitory effects of the compounds were assessed by using the MTT assay. Briefly, cells were plated in 96-well plates at a density of 1 × 10⁴ cells per well. After the cells were allowed to adhere overnight at 37 °C in 5% CO₂, they were treated with compounds at a concentration of 100 µM in triplicate. Following a 20 h incubation, the MTT reagent was added, and the cells were further incubated for 4 h. The resulting formazan was solubilized in anhydrous DMSO, and absorbance was measured at 570 nm by using a microplate reader. Cell viability was calculated by using the following formula: ([AE − AB]/[AC − AB]) × 100%, where AE, AC, and AB represent the absorbance values of experimental samples, untreated controls, and blank wells, respectively. Data analysis was performed by using GraphPad Prism or QuickCalcs.

S. aureus TCH 1516 = experiment: Broth microdilution MIC, S. aureus TCH 1516; type: cell-based; details: Staphylococcus aureus
E. coli AR-0001 = experiment: Broth microdilution MIC, E. coli AR-0001; type: cell-based; details: Escherichia coli, AR0001; multidrug-resistant, KPC-3; CAMHB, 18 ± 2 h; read-out: minimal inhibitory concentration (MIC) E. coli AR-0001
K. pneumoniae AR-0003 = experiment: Broth microdilution MIC, K. pneumoniae AR-0003; type: cell-based; details: Klebsiella pneumoniae, AR0003; KPC-3; CAMHB, 18 ± 2 h; read-out: minimal inhibitory concentration (MIC) K. pneumoniae AR-0003
P. aeruginosa AR-1114 = experiment: Broth microdilution MIC, P. aeruginosa AR-1114; type: cell-based; details: Pseudomonas aeruginosa, AR1114; IMP-15; CAMHB, 18 ± 2 h; read-out: minimal inhibitory concentration (MIC) P. aeruginosa AR-1114
[1] = AR0671, CAMHB, 18 ± 2 h, read-out: minimal inhibitory concentration (MIC) E. faecalis AR-0671
[2] = MRSA / USA300, mecA MRSA isolate, USA300 lineage, CAMHB, 18 ±, read-out: minimal inhibitory concentration (MIC) S. aureus TCH 1516

Row | MIC (E. faecalis AR-0671; [1]) | MIC (A. baumannii AR-0273) | MIC (S. aureus TCH 1516; [2]) | MIC (E. coli AR-0001) | MIC (K. pneumoniae AR-0003) | MIC (P. aeruginosa AR-1114) | minimal inhibitory concentration (MIC) E. faecalis AR-0671 (E. faecalis AR-0671; CAMHB) | Compound | post-treatment viability (MTT assay) (FaDu cells) | MIC (E. faecalis AR-0671; AR0671, read-out: minimal inhibitory concentration (MIC) E. faecalis AR-0671) | MIC (S. aureus TCH 1516; MRSA / USA300, read-out: minimal inhibitory concentration (MIC) S. aureus TCH 1516)
1 | > 64 µg/mL | 64 µg/mL (≈ 118 µM) | 64 µg/mL (≈ 118 µM) | > 64 µg/mL | 64 µg/mL (≈ 118 µM) | 64 µg/mL (≈ 118 µM) | – | CN(C)c1ccc(/C=N/NC(=O)CCN(CCC(=O)N/N=C/c2ccc(N(C)C)cc2)c2cccc(O)c2)cc1 [Compound 12] | enhanced cytotoxic effects | – | –
2 | > 64 µg/mL | > 64 µg/mL | > 64 µg/mL | > 64 µg/mL | > 64 µg/mL | > 64 µg/mL | – | O=C(CCN(CCC(=O)NN=Cc1ccc(F)cc1F)c1cccc(O)c1)NN=Cc1ccc(F)cc1F [Compound 9, 3,3′-((3-Hydroxyphenyl)azanediyl)bis(N′-(2,4-difluorobenzylidene)propanehydrazide)] | – | – | –
3 | 8 µg/mL (≈ 14.3 µM) | > 64 µg/mL | 2 µg/mL (≈ 3.59 µM) | 64 µg/mL (≈ 115 µM) | > 64 µg/mL | > 64 µg/mL | – | O=C(CCN(CCC(=O)NN=Cc1cccc2ccccc12)c1cccc(O)c1)NN=Cc1cccc2ccccc12 [Compound 14, 3,3′-((3-Hydroxyphenyl)azanediyl)bis(N′-(naphthalen-1-ylmethylene)propanehydrazide)] | – | – | –
4 | > 64 µg/mL | > 64 µg/mL | 64 µg/mL (≈ 122 µM) | > 64 µg/mL | > 64 µg/mL | > 64 µg/mL | >64 µg/mL | O=C(CCN(CCC(=O)NN=Cc1ccc(Cl)cc1)c1cccc(O)c1)NN=Cc1ccc(Cl)cc1 [Compound 11, 3,3′-((3-Hydroxyphenyl)azanediyl)bis(N′-(4-chlorobenzylidene)propanehydrazide)] | – | – | –
5 | > 64 µg/mL | > 64 µg/mL | 64 µg/mL (≈ 146 µM) | > 64 µg/mL | > 64 µg/mL | > 64 µg/mL | – | Cc1ccc(C)n1NC(=O)CCN(CCC(=O)Nn1c(C)ccc1C)c1cccc(O)c1 [Compound 23, 3,3′-((3-Hydroxyphenyl)azanediyl)bis(N-(2,5-dimethyl-1H-pyrrol-1-yl)propanamide)] | reduced viability | – | –
6 | – | – | – | – | – | – | – | CN[C@H](CC(C)C)C(=O)N[C@H]1C(=O)N[C@@H](CC(N)=O)C(=O)N[C@H]2C(=O)N[C@H]3C(=O)N[C@H](C(=O)N[C@H](C(=O)O)c4cc(O)cc(O)c4-c4cc3ccc4O)[C@H](O)c3ccc(c(Cl)c3)Oc3cc2cc(c3O[C@@H]2O[C@H](CO)[C@@H](O)[C@H](O)[C@H]2O[C@H]2C[C@](C)(N)[C@H](O)[C@H](C)O2)Oc2ccc(cc2Cl)[C@H]1O [Vancomycin, Vancomycin hydrochloride, reference compound] | – | 4 µg/mL | 2 µg/mL
7 | 8 µg/mL (≈ 17.6 µM) | > 64 µg/mL | 32 µg/mL (≈ 70.4 µM) | > 64 µg/mL | > 64 µg/mL | > 64 µg/mL | – | Cc1nnc(SCC2=C(C(=O)O)N3C(=O)[C@@H](NC(=O)Cn4cnnn4)[C@H]3SC2)s1 [Cefazolin, cefazolin, reference compound] | – | – | –
8 | > 64 µg/mL | > 64 µg/mL | > 64 µg/mL | 32 µg/mL (≈ 114 µM) | > 64 µg/mL | > 64 µg/mL | – | COC(=O)CCN(CCC(=O)OC)c1cccc(O)c1 [Compound 3, Dimethyl 3,3′-((3-hydroxyphenyl)azanediyl)dipropionate] | minimal cytotoxicity | – | –
9 | 2 µg/mL (≈ 5.22 µM) | > 64 µg/mL | 2 µg/mL (≈ 5.22 µM) | 8 µg/mL (≈ 20.9 µM) | 64 µg/mL (≈ 167 µM) | 32 µg/mL (≈ 83.4 µM) | – | C[C@@H](O)[C@H]1C(=O)N2C(C(=O)O)=C(S[C@@H]3CN[C@H](C(=O)N(C)C)C3)[C@H](C)[C@H]12 [Meropenem, meropenem, reference compound] | – | – | –
10 | > 64 µg/mL | > 64 µg/mL | > 64 µg/mL | > 64 µg/mL | > 64 µg/mL | > 64 µg/mL | – | Cc1cc(C)n(C(=O)CCN(CCC(=O)n2nc(C)cc2C)c2cccc(O)c2)n1 [Compound 24, 3,3′-((3-Hydroxyphenyl)azanediyl)bis(1-(3,5-dimethyl-1H-pyrazol-1-yl)propan-1-one)] | reduced viability | – | –
11 | > 64 µg/mL | 64 µg/mL (≈ 146 µM) | > 64 µg/mL | > 64 µg/mL | > 64 µg/mL | 64 µg/mL (≈ 146 µM) | – | O=C(CCN(CCC(=O)N/N=C/c1ccco1)c1cccc(O)c1)N/N=C/c1ccco1 [Compound 15] | enhanced cytotoxic effects | – | –
12 | 32 µg/mL (≈ 65.9 µM) | > 64 µg/mL | 32 µg/mL (≈ 65.9 µM) | > 64 µg/mL | > 64 µg/mL | > 64 µg/mL | – | CC(=NNC(=O)CCN(CCC(=O)NN=C(C)c1ccccc1)c1cccc(O)c1)c1ccccc1 [Compound 21, 3-((3-Hydroxyphenyl)(3-oxo-3-(2-(1-phenylethylidene)hydrazineyl)propyl)amino)-N′-(1-phenylethylidene)propanehydrazide] | – | – | –
13 | 32 µg/mL (≈ 82.2 µM) | > 64 µg/mL | 16 µg/mL (≈ 41.1 µM) | > 64 µg/mL | > 64 µg/mL | > 64 µg/mL | – | CCC(C)=NNC(=O)CCN(CCC(=O)NN=C(C)CC)c1cccc(O)c1 [Compound 20, 3,3′-((3-Hydroxyphenyl)azanediyl)bis(N′-(butan-2-ylidene)propanehydrazide)] | – | – | –
14 | 32 µg/mL (≈ 49.7 µM) | > 64 µg/mL | 8 µg/mL (≈ 12.4 µM) | 16 µg/mL (≈ 24.9 µM) | > 64 µg/mL | > 64 µg/mL | – | C/C(=N\NC(=O)CCN(CCC(=O)N/N=C(\C)c1ccc(S(N)(=O)=O)cc1)c1cccc(O)c1)c1ccc(S(N)(=O)=O)cc1 [Compound 22, 4,4′-(((3,3′-((3-Hydroxyphenyl)azanediyl)bis(propanoyl))bis(hydrazin-2-yl-1-ylidene))bis(ethan-1-yl-1-ylidene))dibenzenesulfonamide] | – | – | –
